Laboratory results: publication PMC4332636, “In Vitro and In Vivo Toxicity Profiling of Ammonium-Based Deep Eutectic Solvents” (PLoS ONE, 2015)
≈ marks a conversion by molar mass, not a printed value. Like-named read-outs stand apart in the source and are kept apart here.

Columns and labels:
[1] = test system: human oral keratinocyte cell line (OKF6); assay: MTT cell viability assay, OKF6; type: cell-based; settings: OKF6, 48 h treatment
Description: (§1) Human prostate cancer cell line (PC3), human malignant melanoma cell line (A375), human liver hepatocellular cell line (HepG2) and human colon adenocarcinoma cell line (HT29) were purchased from American Type Culture Collection (ATCC, Manassas, VA). The human breast cancer cell line (MCF-7) was acquired from Cell Lines Service (300273; Eppelheim, Germany), human oral keratinocyte cell line (OKF6) cells and carcinoma-derived human oral keratinocyte cells (H413) (Sigma-aldrich, Saint Louis, MO) were received from Professor Ian Charles Paterson. MCF-7, A375, HT29 and HepG2 cells were grown in Dulbecco’s Modified Eagle Medium (DMEM, Life Technologies, Inc., Rockville, MD) supplemented with 10% heat-inactivated fetal bovine serum (FBS, Sigma-Aldrich, St. Louis, MO), 1% penicillin and streptomycin. PC3 cells were grown in Roswell Park Memorial Institute medium (RPMI) supplemented with 10% heat-inactivated fetal bovine serum (FBS, Sigma-Aldrich, St. Louis, MO), 1% penicillin and streptomycin. OKF6 cells were grown in Keratinocyte Serum-Free Medium (KSFM), supplemented with 10% heat-inactivated fetal bovine serum (FBS, Sigma-Aldrich, St. Louis, MO), 1% penicillin and streptomycin. H413 cells were grown in Dulbecco's Modified Eagle Medium/Ham's F-12 (DMEM/F12) supplemented with 10% heat-inactivated fetal bovine serum (FBS, Sigma-Aldrich, St. Louis, MO), 1% penicillin and streptomycin. Cells were cultured in tissue culture flasks (Corning, USA) and were kept in an incubator at 37°C in a humidified atmosphere with 5% CO2. For experimental purposes, cells in exponential growth phase (approximately 70–80% confluency) were used.
(§2) The influence of the solvents was determined by MTT assay (Mosmann, 1983). MCF-7, A375, HT29, HepG2, PC3, OKF6 and H413 cells were treated for 48 h. On the first day, 1.0 × 10^4 cells were seeded into a 96-well plate for 24 h incubation assay. The cells were incubated overnight at 37°C in 5% CO2. On the next day, the cells were treated with a two-fold dilution series of six concentrations of the solvents, and then incubated at 37°C in 5% CO2 for 48 h. MTT solution (4,5-dimethylthiazol-2-yl-2,5-diphenyltetrazoliumbromide) was added at 2 mg/mL, and after 2 h of incubation at 37°C in 5% CO2, DMSO was added to dissolve the formazan crystals. The plates were then read in Chameleon multitechnology microplate reader (Hidex, Turku, Finland) at 570 nm absorbance. The cell viability percentage after exposure to the solvents for 48 h was calculated by the previously described method. The ratio of the absorbance of treated cells to the absorbance of DMSO-treated control cells was determined as cell viability (percentage).

[2] = test system: human colon adenocarcinoma cell line (HT29); assay: MTT cell viability assay, HT29; type: cell-based
Description: as §1, §2

[3] = test system: human malignant melanoma cell line (A375); assay: MTT cell viability assay, A375; type: cell-based
Description: as §1, §2

[4] = test system: carcinoma-derived human oral keratinocyte cells (H413); assay: MTT cell viability assay, H413; type: cell-based; settings: H413, 48 h treatment
Description: as §1, §2

[5] = test system: human liver hepatocellular cell line (HepG2); assay: MTT cell viability assay, HepG2; type: cell-based; settings: HepG2, 48 h treatment
Description: as §1, §2

[6] = test system: human breast cancer cell line (MCF-7); assay: MTT cell viability assay, MCF-7; type: cell-based
Description: as §1, §2

[7] = test system: human prostate cancer cell line (PC3); assay: MTT cell viability assay, PC3; type: cell-based; settings: PC3, 48 h treatment
Description: as §1, §2

[8] = set-up: method as in PMID 18512987, PMID 19661306; settings: previously reported; cited from earlier work
[9] = Acute toxicity (LD50) in ICR mice; type: in vivo; settings: mouse, in vivo, oral, mortality within 14 days
Procedure: (§3) The acute toxicity of the compounds was evaluated using six Imprinting Control Region (ICR) mice per groups at 8 to 12 weeks of age, with an average body weight of 25.6 g. The animals were assigned equally into 4 groups labeled as vehicle (dH2O), high dose (20 g/kg), medium dose (10 g/kg) and low dose (5 g/kg) of the compounds. Prior to administration, the animals were fasted (food but not water) overnight and for 3 to 4 h after compounds administration to eliminate any food inside the gastrointestinal tract that might complicate absorption of the test substance. […] Animals were euthanized by CO2 asphyxiation on 15th day, and serum biochemical and histological (liver and kidney) parameters were determined following the standard method. The mortality of the mice were recorded within 14 days and used to calculate the LD50 for each compound. The mice used were housed in specific pathogen free facility at the University of Malaya. This work was designed to minimize animal suffering and number of animals used, and has been approved by the Faculty of Medicine Animal Care and Use Committee (FOMIACUC, Approval No: 2014-05-07/PHAR/R/CYL) at University of Malaya. The work was reported according to ARRIVE guideline.

ICR mice = assay: Acute toxicity (LD50) in ICR mice; type: in vivo; settings: mortality within 14 days
Procedure: as §3

[10] = ORAC antioxidant activity assay
Procedure: Chemicals. Fluorescein sodium salt, AAPH (2,2′-Azobis(2-methylpropionamidine) dihydrochloride), quercetin dehydrate and trolox ((±)-6-Hydroxy-2,5,7,8-tetramethylchromane-2-carboxylic acid) were purchased from Sigma-Aldrich.
ORAC assay. ORAC (oxygen radical […]) assay was done based on procedures described previously with slight modifications. Compounds were diluted to a final concentration of 100μg/mL, with total reaction volume of 200μL. The assay was performed in a 96-well black microplate, with 25μL of samples, standard (trolox), blank (solvent/PBS) or positive control (quercetin). Subsequently, 150μL of working fluorescein solution was added to each well of assay plate. The plate was incubated at 37°C for at least 5 min. 25μL of AAPH working solution was then added to the wells, making up a total volume of 200μL. Fluorescence was recorded with excitation wavelength of 485nm and emission wavelength of 538nm. […] The values were expressed as trolox equivalent (TE).

HepG2 = settings: on HepG2; cited from earlier work

## C[N+](C)(C)CCO.[Cl-] [Solvent 14, choline chloride]
[1]
  IC50: 21.74 ± 1.04 mg/L
[2]; HT29, 48 h treatment
  IC50: 8.939 ± 1.43 mg/L
[3]; A375, 48 h treatment
  IC50: 12.75 ± 1.23 mg/L
[4]
  IC50: 21.49 ± 0.57 mg/L
[5]
  IC50: 14.60 ± 2.53 mg/L
[6]; MCF-7, 48 h treatment
  IC50: 12.23 ± 0.39 mg/L
[7]
  IC50: 10.18 ± 0.95 mg/L

## OCC(O)CO [Solvent 3, glycerine]
[1]
  IC50: 129.31 ± 8.23 mg/L (≈ 1400 µM)
[2]; HT29, 48 h treatment
  IC50: 63.80 ± 7.23 mg/L (≈ 693 µM)
[3]; A375, 48 h treatment
  IC50: 67.65 ± 6.83 mg/L (≈ 735 µM)
[4]
  IC50: 101.02 ± 18.54 mg/L (≈ 1100 µM)
[5]
  IC50: 68.85 ± 11.74 mg/L (≈ 748 µM)
[6]; MCF-7, 48 h treatment
  IC50: 74.73 ± 6.67 mg/L (≈ 811 µM)
[7]
  IC50: 42.38 ± 3.96 mg/L (≈ 460 µM)

## 4-Hydroxy tamoxifen
[8]
  selectivity index: less than 2

## C[N+](C)(C)CCO.[Cl-] [Solvent 2, choline chloride]
[1]
  IC50: 26.53 ± 1.97 mg/L
[2]; HT29, 48 h treatment
  IC50: 13.41 ± 1.73 mg/L
[3]; A375, 48 h treatment
  IC50: 7.584 ± 2.31 mg/L
[4]
  IC50: 19.61 ± 4.19 mg/L
[5]
  IC50: 14.26 ± 1.43 mg/L
[6]; MCF-7, 48 h treatment
  IC50: 8.95 ± 0.98 mg/L
[7]
  IC50: 11.94 ± 1.35 mg/L

## OCC(O)CO [Pure Gl, glycerine]
[9]
  LD50 at 14 days: 20600 ± 2160 mg/kg

## NC(N)=O [Solvent 11, urea]
[1]
  IC50: 28.22 ± 1.05 mg/L (≈ 470 µM)
[2]; HT29, 48 h treatment
  IC50: 13.93 ± 2.16 mg/L (≈ 232 µM)
[3]; A375, 48 h treatment
  IC50: 11.21 ± 1.38 mg/L (≈ 187 µM)
[4]
  IC50: 20.22 ± 1.69 mg/L (≈ 337 µM)
[5]
  IC50: 24.23 ± 4.02 mg/L (≈ 403 µM)
[7]
  IC50: 23.09 ± 5.22 mg/L (≈ 384 µM)

## OCCO [Solvent 7, ethylene glycol]
[1]
  IC50: 75.62 ± 6.33 mg/L (≈ 1220 µM)
[2]; HT29, 48 h treatment
  IC50: 43.72 ± 3.97 mg/L (≈ 704 µM)
[3]; A375, 48 h treatment
  IC50: 40.59 ± 5.27 mg/L (≈ 654 µM)
[4]
  IC50: 62.29 ± 8.94 mg/L (≈ 1000 µM)
[5]
  IC50: 44.33 ± 5.86 mg/L (≈ 714 µM)
[6]; MCF-7, 48 h treatment
  IC50: 53.91 ± 6.17 mg/L (≈ 869 µM)
[7]
  IC50: 32.48 ± 1.06 mg/L (≈ 523 µM)

## NC(N)=O [Pure U, urea]
ICR mice
  LD50: >20000 mg/kg

## O=c1c(O)c(-c2ccc(O)c(O)c2)oc2cc(O)cc(O)c12 [Quercetin, quercetin dehydrate]
[10]; compounds at 100μg/mL
  net AUC: 6353346
[10]; trolox equivalent
  mM of Trolox per 100μg/mL: 0.02141 mM of Trolox per 100μg/mL
  μM of Trolox per 100μg/mL: 21.411 μM of Trolox per 100μg/mL

## CCCCCCCCCC[N+](C)(C)CCCCCCCCCC [[DDA][Sac], didecyldimethylammonium saccharinate]
HepG2
  IC50: 4.8 µM

## C[C@@]12CCC[C@]3(C)c4cc5c(O)ccc(O)c5cc4C(=O)[C@](O)(OC1)[C@H]23 [alisiaquinol]
[8]
  selectivity index: less than 2

## OCCOCCOCCO [Solvent 15, triethylene glycol]
[1]; Homo sapiens, read-out: IC50
  IC50: 29.8 ± 1.45 mg/L (≈ 198 µM)
[2]; Homo sapiens, HT-29, HT29, 48 h treatment, read-out: IC50
  IC50: 20.2 ± 2.75 mg/L (≈ 135 µM)
[3]; Homo sapiens, A-375, A375, 48 h treatment, read-out: IC50
  IC50: 14.6 ± 0.64 mg/L (≈ 97.4 µM)
[4]; Homo sapiens, Keratinocyte, read-out: IC50
  IC50: 32.1 ± 3.1 mg/L (≈ 214 µM)
[5]; Homo sapiens, read-out: IC50
  IC50: 33.9 ± 4.94 mg/L (≈ 226 µM)
[6]; Homo sapiens, MCF7, MCF-7, 48 h treatment, read-out: IC50
  IC50: 18.3 ± 2.15 mg/L (≈ 122 µM)
[7]; Homo sapiens, read-out: IC50
  IC50: 23.1 ± 1.32 mg/L (≈ 154 µM)

## OCCO [Pure EG, ethylene glycol]
ICR mice
  LD50: 9710 ± 1950 mg/kg

## C[N+](C)(C)CCO.[Cl-] [Solvent 6, choline chloride]
[1]
  IC50: 24.58 ± 2.81 mg/L
[2]; HT29, 48 h treatment
  IC50: 11.79 ± 0.43 mg/L
[3]; A375, 48 h treatment
  IC50: 8.64 ± 1.75 mg/L
[4]
  IC50: 21.84 ± 2.65 mg/L
[5]
  IC50: 12.69 ± 1.63 mg/L
[6]; MCF-7, 48 h treatment
  IC50: 13.05 ± 2.09 mg/L
[7]
  IC50: 13.60 ± 2.94 mg/L

## CC/C(=C(/CCN1CCCCC1)c1ccc(O)cc1)c1ccc(O)cc1 [piperidinyl-diethylstilbestrol]
[8]
  selectivity index: less than 2

## OCCOCCOCCO [Pure TEG, triethylene glycol]
[9]
  LD50 at 14 days: 17000 ± 2040 mg/kg

## C[N+](C)(C)CCO.[Cl-] [Solvent 10, choline chloride]
[1]
  IC50: 32.49 ± 3.41 mg/L
[2]; HT29, 48 h treatment
  IC50: 18.75 ± 1.65 mg/L
[3]; A375, 48 h treatment
  IC50: 10.54 ± 0.34 mg/L
[4]
  IC50: 38.41 ± 4.03 mg/L
[5]
  IC50: 25.99 ± 1.85 mg/L
[6]; MCF-7, 48 h treatment
  IC50: 12.51 ± 0.71 mg/L
[7]
  IC50: 28.88 ± 2.64 mg/L
